Test results: PMC4857598 (Nuclear medicine and biology, 2012)
Like-named read-outs stand apart in the source and are kept apart here. One block for each compound: values may come before it.

Assays:
αvβ3 [1] = conditions: read-out: IC50 value; published pentapeptides; cited from earlier work
Integrin αvβ3 [2] = conditions: read-out: IC50 value by fluorescence polarization; cited from earlier work
Integrin αvβ3 [3] = conditions: read-out: IC50 value by cell adhesion; cited from earlier work
MMP2 = target: T1, MMP2 (Homo sapiens, UniProt P08253); assay: Ilomastat inhibition of MMP2 activity; assay type: biochemical; conditions: 910 μM ilomastat, MMP2 1.4 μg, 37 °C, 24 hours, HPLC of fragmented peptide
T1 sequence (P08253 110-660): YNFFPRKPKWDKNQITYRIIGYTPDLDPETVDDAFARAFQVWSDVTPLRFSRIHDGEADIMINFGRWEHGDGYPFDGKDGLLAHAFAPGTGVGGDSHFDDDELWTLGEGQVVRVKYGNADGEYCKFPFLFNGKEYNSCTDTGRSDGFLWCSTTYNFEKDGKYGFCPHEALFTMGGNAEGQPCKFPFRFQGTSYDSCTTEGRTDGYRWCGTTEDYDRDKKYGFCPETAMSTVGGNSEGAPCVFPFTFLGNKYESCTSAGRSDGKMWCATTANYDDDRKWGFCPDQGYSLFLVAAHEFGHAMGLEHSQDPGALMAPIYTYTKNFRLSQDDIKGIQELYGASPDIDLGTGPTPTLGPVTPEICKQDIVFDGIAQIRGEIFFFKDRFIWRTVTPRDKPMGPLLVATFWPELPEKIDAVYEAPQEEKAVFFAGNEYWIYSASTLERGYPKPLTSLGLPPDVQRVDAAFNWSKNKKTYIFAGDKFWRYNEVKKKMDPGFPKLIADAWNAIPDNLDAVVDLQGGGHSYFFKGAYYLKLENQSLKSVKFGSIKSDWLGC

αvβ3 [4] = conditions: read-out: IC50 value; published pentapeptides; cited from earlier work; remark: listed apart in the source

Compound: c(RGDfK)
IC50 (αvβ3 [1]): 4.2 nM

Compound: c(ERGDf) (head to tail)
IC50 (Integrin αvβ3 [2]): 280 ± 4 nM
IC50 (Integrin αvβ3 [3]): 3200 ± 160 nM

inhibition of MMP2 cleavage of [64Cu]c(RGDfE)K(DOTA)PLGVRY (MMP2): inhibition of the peptide cleavage
Compound: CNC(=O)[C@H](Cc1c[nH]c2ccccc12)NC(=O)[C@@H](CC(=O)NO)CC(C)C [ilomastat, N-[(2R)-2-(hydroxamidocarbonylmethyl)-4-methylpentanoyl]-L-tryptophan methylamide]

Compound: c(rGDFV) (head to tail)
IC50 (αvβ3 [4]): 25000 ± 4000 nM
